Experimental data taken from patent US7732504B2, “Functionalized photoinitiators” (Ciba Specialty Chemicals Corporation, priority 2004, dated 2010).

Legend:
[1] = Curing of a blue flexo printing ink on a white polyethylene foil (maximum rate of passage, 120 W/cm mercury lamp); conditions: conc 6.0 %, blue flexo ink on corona treated white polyethylene foil
Protocol: Curing of a Blue Flexo Printing Ink on a White Polyethylene Foil
(§1) A photocurable blue flexo printing ink is prepared in accordance with the following formulation: […]
(§2) The above components are grounded down to a stock paste. Portions of the stock paste are mixed with the photoinitiators indicated in the table (% by weight on the stock paste). The solubility of the initiator in the formulation is rated as good (+), acceptable (±) or bad (−) and the results shown in Table 2.
The blue printing ink thus obtained is applied with […] 1.5 μm thickness on a corona treated white polyethylene foil using a Prüfbau laboratory printing equipment. The samples are exposed in an irradiation apparatus with a 120 W/cm mercury lamp (IST). The rate of passage of the sample through the irradiation apparatus is thereby increased continuously until adequate curing no longer occurs. The adhesion of the cured film to the foil is measure by the Tesa tape test.

[2] = Solubility of the initiator in the blue flexo printing ink formulation; type: physicochemical; parameters: key: good (+); acceptable (±); bad (−); conditions: photoinitiator conc 6.0 % by weight on the stock paste
Protocol: as §1
26.9 g of IRR 440 (flexo basic resin)
19.0 g of OTA 480 (acrylated trifunctional resin, UCB, Belgium)
18.0 g of Ebecryl® 645 (modified diacrylate of Bisphenol A epoxy resin diluted with 25% of TPGDA, from UCB, Belgium)
13.0 g of HDDA (1,6-hexanediol diacrylate)
10.0 g of Ebecryl® 220 (urethane acrylate from UCB, Belgium)
1.3 g of Ebecryl® 168 (methacrylated acidic compound from UCB, Belgium)
0.7 g of DC 57 (Leveling agent)
11.1 g Irgalit blue GLO (Cu-phthalocyanine pigment from Ciba Specialty Chemicals)
as §2

[3] = Curing of a blue offset printing ink on white paper (maximum rate of passage, 80 W/cm mercury lamp); conditions: for curing rate (m/min) for surface cure / curing rate (m/min) for through cure: blue offset ink 1.5 g/m^2 on white paper, 80 W/cm mercury lamp
Protocol: Curing of a Blue Offset Printing Ink on White Paper
(§3) A photocurable blue offset printing ink is prepared in accordance with the following formulation: […]
as §2, with “1.” for “2.”
The blue printing ink thus obtained is applied with 1.5 g/m^2 (˜1.5 μm thickness) on white paper using a Prüfbau laboratory printing equipment. The samples are exposed in an irradiation apparatus with a 80 W/cm mercury lamp (IST). The rate of passage of the sample through the irradiation apparatus is thereby increased continuously until adequate curing no longer occurs. The odor of the cured film is rated on a scale from 1 (odorless) to 3 (strong odor).

[4] = Solubility of the initiator in the blue offset printing ink formulation; type: physicochemical; parameters: key: good (+); acceptable (±); bad (−)
Protocol: as §3
18.3 g of Ebecryl® 1608 (UCB, Belgium)
18.3 g of Ebecryl® 657 (polyester acrylate from UCB, Belgium)
20.0 g of Ebecryl® 220 (urethane acrylate from UCB, Belgium)
20.9 g of Ebecryl® 150 (bisphenol A derivative diacrylate from UCB, Belgium)
22.5 g Irgalit blue GLO (Cu-phthalocyanine pigment from Ciba Specialty Chemicals)
as §2, with “1.” for “2.”

[5] = photoinitiator conc 3.0 % by weight on the stock paste
[6] = photoinitiator conc 4.0 % by weight on the stock paste

| Structure (SMILES) | melting point | curing rate (m/min) for surface cure [1] | curing rate (m/min) for through cure [1] | solubility [2] | efficiency as a photoinitiator compared with the reference compounds ([3]; blue offset printing ink, versus Irgacure 369 and Irgacure 907) | curing rate (m/min) for surface cure ([3]; conc 3.0 %) | curing rate (m/min) for through cure ([3]; conc 3.0 %) | curing rate (m/min) for surface cure ([3]; conc 4.0 %) | curing rate (m/min) for through cure ([3]; conc 4.0 %) | solubility [4, 5] | solubility [4, 6] |
| --- | --- | --- | --- | --- | --- | --- | --- | --- | --- | --- | --- |
| CCCC(CC)(C(=O)c1ccc(NCCO)cc1)N(C)C (stereo not shown) | 74 to 77 °C |  |  |  |  |  |  |  |  |  |  |
| CCC(Cc1ccccc1)(C(=O)c1ccc(NCCO)cc1)N(C)C (stereo not shown) [Example 1, 2-benzyl-1-[4-(2-hydroxyethylamino)phenyl]-2-dimethylamino-1-butanone] | 109 to 111 °C | 200 m/min | 40 m/min | + | more efficient as a photoinitiator than the reference compounds | 100 m/min | 120 m/min | 140 m/min | 170 m/min | + | + |
| CC(C)(C(=O)c1ccc(NCCO)cc1)N1CCOCC1 [Example 6, 1-[4-(2-hydroxyethyamino)phenyl]-2-methyl-2-(morpholin-4-yl)-1-propanone] | 77 to 78 °C |  |  |  |  |  |  |  |  |  |  |
| CCC(Cc1ccccc1)(C(=O)c1ccc(N2CCOCC2)cc1)N(C)C (stereo not shown) [Irgacure 369, 2-benzyl-2-(dimethylamino)-1-[4-(4-morpholinyl)phenyl]-1-butanone] |  | 170 m/min | 90 m/min | + |  | 70 m/min | 110 m/min | 90 m/min | 130 m/min | − | − |
| CSc1ccc(C(=O)C(C)(C)N2CCOCC2)cc1 [Irgacure 907] |  |  |  |  |  |  |  | 80 m/min | 90 m/min |  | + |
